Consider 85 compounds from a melting point compilation (Tetko et al.; mined from patent text by program, amines drawn as free bases though some values may be those of a salt).

SMILES strings stand for the structures.

For the compound `CCCC(=O)n1ccc(-c2ccc(C(=O)N3Cc4cccn4Cc4ccccc43)cc2)n1`, the melting point was in the range of 105 to 110 °C.
Next, `CC(=O)Oc1c(C)c(C)c2c(c1C)CC(C)(C(=O)Nc1cnc3c(C)cc(C)cc3c1-c1ccccc1Cl)O2` (stereo not given): 259 to 261 °C.
Turning to `COC(=O)NN[C@@H]1c2cc(C#N)ccc2OC(C)(C)[C@H]1O` (relative stereo), the melting point is 174 to 175 °C.
For the compound `Cc1ccc([N+](=O)[O-])c(-c2nc(C(F)(F)F)cs2)c1`, the melting point fell in the range of 98 to 104 °C.
Next, `CCN(CC)C(=O)C=Cc1cccc([N+](=O)[O-])c1C`: 74.3 °C.
The compound `CN(C)C(=O)Oc1cccc2c1CC[C@H]1[C@H]2CCN1CCC1CCCCC1` had a melting point of 110 to 112 °C.
Compound `C[C@H](CO)Nc1nc(SCc2cccc(F)c2F)nc2c1=NC(=O)C(=O)N=2` gave a melting point of 243 to 246 °C.
Compound `CCCCCCCCc1ccc(C=CC(=O)CC(=O)OCC)cc1` gave a melting point of 57 °C.
Next, `COc1ccc(Br)c2c1CC(NC(C1CC1)C1CC1)CC2` (single isomer, unassigned; (-)): 153 to 154 °C; `COc1ccc(Cn2c(=O)nc(C3CC3)c3cc(-c4cccc(Cl)c4)ccc32)cc1`: 173 to 174 °C.
In turn, `O=[N+]([O-])c1ccccc1-c1cnoc1` registered a melting point of 51 to 54 °C.
The result for `CC(C)CN(CC(C)C)C(=O)c1c(N)cccc1N` reads 76 to 77 °C; that for `CS(=O)(=O)c1ccc2c(c1)[nH]c(=S)n2NC(=O)c1ccc(Cl)c(S(N)(=O)=O)c1`, 298 to 300 °C; that for `C#Cc1ccc(Nc2c(-c3nnc(NCCO)o3)ccc(F)c2F)c(F)c1`, 112 to 115 °C.
Next, `O=C(OCc1ccccc1)N1CCN(c2cc(=O)[nH]cn2)CC1`: 247 to 249 °C.
The result for `Cc1ccc(C(=O)C2=C(O)C(=O)N(c3ncc(S(C)(=O)=O)s3)C2c2ccc(C(C)C)cc2)cc1` (stereo not given) reads 269 to 271 °C.
As to `Cc1ccc(Cc2nc3cc(-c4ccc(-c5ccccc5)cc4)c(Cl)cc3[nH]2)cc1P(=O)(O)O`, the melting point was greater than 220 °C.
`CN1C(=O)N(CC(CS(=O)(=O)c2ccc(Oc3ccc(C(F)(F)F)cc3)cc2)N(O)C=O)C(=O)C1(C)C` (stereo not given) showed a melting point of 141 to 143 °C.
The result for `O=S(=O)(Nc1ccc2c(OCc3ccc(-c4ccc(C(F)(F)F)cc4)cc3F)cccc2c1)C(F)(F)F` reads 98 to 100 °C; that for `COc1ccc(/C=C(\C#N)c2ccccc2Cl)cc1OC1CCCC1`, 94 to 95 °C.
`CC(C)OCCOc1ccc(-c2ccc3c(c2)C=C(C(=O)O)CCN3C=O)cc1` displayed a melting point of 165 to 166 °C.
In the case of `CCCCC(CC)Cn1c(O)c(N=Nc2ccc(S(=O)(=O)N(CCO)CCO)cc2)c(C)c(C#N)c1=O` (stereo not given), the melting point lay within 189 to 190 °C.
The result for `CC(n1cnc2cc(-c3ccc(C4=NCCO4)cc3)sc2c1=O)C(O)(Cn1cncn1)c1ccc(F)cc1F` (stereo not given) reads 235 to 236 °C; that for `COc1ccc(C(=O)O)nc1OC1CCCC1`, 96 to 99 °C; that for `COc1ccc(C2=NN(C3CCN(S(=O)(=O)c4ccc(C#N)cc4)CC3)C(=O)C(C)(C)C2)cc1OC`, 161 to 163 °C.
The result for `O=C(CC(=O)C1CC1)c1ccccn1` reads 77 to 78 °C; that for `COc1ccc(NC2C3CCC(CC3=O)C2(C)c2ccccc2)cc1` (stereo not given), 138 to 139 °C; that for `CC(C)c1nc2cc(NC(=O)c3c(C(=O)O)cnn3C)ccn2n1`, greater than 250 °C.
The compound `O=C1C(CCO)Oc2cc([N+](=O)[O-])ccc2N1Cc1ccc([N+](=O)[O-])cc1` (stereo not given) displayed a melting point of 100 to 104 °C.
As to `COC(=O)Cc1ccc(C(=O)O)cc1`, the melting point lay in the range of 134 to 136 °C.
For `Nc1ncnc(N2CCc3ccccc3CC2)c1[N+](=O)[O-]`, the melting point is greater than 200 °C.
Compound `CC(O)c1cc(S(N)(=O)=O)sc1Sc1ccc(O)cc1` (stereo not given) registered a melting point of 133 to 137 °C.
Next, `COC1OC(CO)C(O)C(NC(=O)N(C)N=O)C1O` (stereo not given): 116 to 117 °C.
Regarding `CCn1c(=O)c(C#N)c(O)c2ccc(C)nc21`, the melting point lay within 274 to 276 °C.
On to `CC(C)(C)OC(=O)Nc1cc(CC#N)c(I)cc1[N+](=O)[O-]`, for which the melting point fell in the range of 124 to 126 °C.
The compound `CCOC(=O)C(CC)(CC)CCS(N)(=O)=O` had a melting point of 93 to 94 °C.
For the compound `CCN1C(=O)CCC2=C1CCc1cc(F)ccc12`, the melting point came out at 72 °C.
For the compound `N=c1[nH]ccn1Cc1ccc(Cl)nc1`, the melting point amounted to 188 °C.
The result for `O=C(O)c1ccc(CC2(Cc3ccc(C(=O)O)cc3)C(=O)N=C3C=CC=CN32)cc1` reads greater than 300 °C; that for `NS(=O)(=O)c1cc2ccc(O)cc2c(S(N)(=O)=O)c1-c1cccc(Cl)c1O`, 135 to 137 °C; that for `CCc1cc(C2(c3cccc(-c4cccnc4F)c3)N=C(N)N3CCCN=C32)cc(CC)n1` (stereo not given), 174 to 176 °C.
`O=C(NCCc1ccccn1)c1ccccc1-c1ccccc1CNS(=O)(=O)c1cccc(F)c1` gave a melting point of 123 °C.
In turn, `CCN(C(=O)N(CC)c1ccc2c(c1)C(C)(C)CCC2(C)C)c1ccc(C(=O)O)cc1` displayed a melting point of 169 to 172 °C.
Compound `Cc1ccc(-c2cn3ccc(Cl)cc3n2)cc1C` yielded a melting point of 144 °C.
`O=C(O)c1ccc(NC(O)C(=O)c2ccc(OCC3CCCCC3)cc2)cc1` (stereo not given) displayed a melting point of 188 to 190 °C.
`Nc1c([N+](=O)[O-])sc2ccc(C(F)(F)F)cc12` displayed a melting point of 198 to 201 °C.
`O=C(NCC1CC(=O)N(Cc2ccccc2)c2ccccc2N1C(=O)CN1C(=O)c2ccccc2C1=O)OCc1ccccc1` (stereo not given): the melting point fell in the range of 219 to 221 °C.
In the case of `CN(c1cccc2cc(C3=NCC(CC(=O)NCCO)S3)[nH]c12)S(=O)(=O)c1cccs1` (stereo not given), the melting point is 214 °C.
Consider `Nc1nc(-c2ccc(CCN3CCN(c4cccc5cc(F)ccc45)CC3)cc2)cs1`, for which the melting point fell in the range of 220 to 225 °C.
As for `Cc1ccc(C(=O)NC(C)(C)C)cn1`, the melting point was 104 to 105 °C.
The result for `CC(=O)Oc1cc(OC(C)=O)c(C)c(C(=O)OCC(Cl)(Cl)Cl)c1C` reads 127 to 128 °C.
With `Cc1ccc(-c2ccc(S(C)(=O)=O)cc2)n1-c1ccc(-c2cccs2)cc1`, the melting point fell in the range of 185 to 186 °C.
The result for `O=C(CCl)Nc1cccc2c1C(=O)c1c(NC(=O)CCl)cccc1C2=O` reads 280 to 281 °C; that for `Cc1cc(C(C)(C)C)cc(C)c1SSc1c(C)cc(C(C)(C)C)cc1C`, 127 to 128 °C; that for `O=C(OCC1CC1)c1ncn2c1[C@@H]1CCCN1C(=O)c1cc(Cl)ccc1-2`, 146 to 148 °C.
Compound `Cc1cc(C)nc(-c2cccc(-c3ccccc3)n2)n1` showed a melting point of 117 °C.
The compound `CC1(C)c2ccccc2S(=O)(=O)N1CCCCl` showed a melting point of 107 °C.
Compound `COc1cc(OC)c2c(=O)[nH]c(-c3cccc(-c4ccc(S(C)=O)s4)c3)nc2c1` (stereo not given) came in with a melting point of 289 to 290 °C.
Compound `CC(=O)OCC1Cc2cccc3c(C4=C(c5cn(C)c6ccccc56)C(=O)OC4=O)cn(c23)C1` (stereo not given) yielded a melting point of 198 to 200 °C.
The compound `CN(C(=O)c1ccc2nonc2c1)[C@H]1CC[C@@H](C#N)CC1` registered a melting point of 180 to 181 °C.
As to `CC12NCCCN1C(=O)c1ccccc12` (stereo not given), the melting point turned out to be 64.5 °C.
The compound `COc1cc(Nc2c(C#N)cnc3cc(-c4ccc(CN5CCOCC5)s4)ccc23)c(Cl)cc1Cl` displayed a melting point of 188 °C.
The compound `C/C(=C\CCC1(C)CCc2cc(O[Si](C)(C)C(C)(C)C)c(C)c(C)c2O1)CCl` (stereo not given) registered a melting point of 56 to 58 °C.
The compound `O=C(Nc1cccc([N+](=O)[O-])c1)NC1C(=O)N(CC23CC4CC(CC(C4)C2)C3)c2ccccc2N(c2ccccc2)C1=O` (stereo not given) displayed a melting point of 213 to 215 °C.
In turn, `COc1ccc2[nH]cc(SCCN=C3CCCN3C)c2c1` registered a melting point of 154 to 157 °C.
For the compound `C(=Cc1ccc2c(n1)[nH]c1ccccc12)c1ccccc1`, the melting point is greater than 220 °C.
Regarding `NCc1nc(-c2ccc(-c3cnc4[nH]c(=O)n(CCC5CCOCC5)c4n3)cc2)n[nH]1`, the melting point fell in the range of 258 to 260 °C.
Consider `CCC(=O)N1c2cscc2C(=O)N(C)c2ccccc21`, for which the melting point fell in the range of 202 to 203 °C.
The compound `CC1(CF)C=C(C(=O)NCCC#N)c2cc([N+](=O)[O-])ccc2O1` (stereo not given) registered a melting point of 165 to 167 °C.
`Nc1ccc(CCN2CCC(NC(=O)c3ccccc3)CC2)cc1` displayed a melting point of 193 to 195 °C.
Next, `CCn1cc(C(=O)O)c(=O)c2c(F)c(F)c(N3CCOCC3)c(F)c21`: 281 to 283 °C; `N#Cc1cccc(-c2ccc3c(c2)C2(CCCCC2)C(=NO)N3)c1`: 198 to 200 °C.
The compound `CCOC(=O)C1CCc2ccc(N)c(C)c2O1` (stereo not given) registered a melting point of 82 to 85 °C.
Next, `CCOc1ccc(OCC(C)(NS(=O)(=O)Cc2ccccc2)C(=O)N2CCOCC2)cc1` (stereo not given): 109 to 111 °C; `Clc1ccc(-c2nc3cc(Cl)ccc3o2)cc1`: 178 to 183 °C; `OCCCC(=C(c1ccccc1)c1ccc(O)cc1)c1ccccc1`: 157 to 163 °C.
The result for `Cc1ccc(S(=O)(=O)OCC2CNC(=O)O2)cc1` (stereo not given) reads 96 to 99 °C; that for `CN1C(=O)C(c2cccc(-c3cccnc3F)c2)(c2cnn(CCF)c2)N=C1N` (stereo not given), 195 to 197 °C; that for `Cc1cc([C@@H]2CCC(=O)N2)on1`, 90 to 91 °C.
Next, `CC(CCCO)C1CCC2C3C(OCc4ccccc4)CC4CC(OC5CCCCO5)CCC4(C)C3CCC12C` (stereo not given): 52 to 55 °C; `NS(=O)(=O)c1ccc(-c2cnn(Cc3ccc(F)c(F)c3F)c(=O)c2-c2ccc(F)cc2)cc1`: 218 to 220 °C.
`COc1cccc(CNC(=O)c2nc3scc(CC(=O)Nc4ccc(C(=O)O)cc4)c3c(=O)[nH]2)c1` came in with a melting point of 279 °C.
Compound `COC(=O)CSC=C1C(=O)OC(C)(C)OC1=O` returned a melting point of 117 to 118 °C.
`CC(C)(C)C(F)(F)c1ccc(C[C@@H](C(=O)O)[C@@H](O)c2cccc(Cl)c2)cc1` (racemic) gave a melting point of 141 to 142 °C.
In turn, `COc1ccccc1N(CC(=O)OC(C)(C)C)C(=O)CNC(=O)Nc1cccc(C)c1` yielded a melting point of 171 °C.
